The test system of one series is P. aeruginosa PAO1. Format: cell-based, Pseudomonas aeruginosa. The settings on record: PAO1, pH 8.5. How it is done:
(§1) Minimal Inhibitory Concentration (MIC)
(§2) Antimicrobial activity was assayed for all the peptide-peptoids against P. aeruginosa PAO1, K. pneumoniae NCTC418, E. coli W3110, A. baumannii ATCC 19606, methicillin-resistant S. aureus COL (MRSA) and for selected peptides on P. aeruginosa PA14, as well as the clinical isolates ZEM-1A and ZEM9A, K. pneumoniae OXA-48, Enterobacter cloacae, Stenotrophomonas maltophilia and Staphylococus epidermidis. To determine the Minimal Inhibitory Concentration (MIC), Broth Microdilution method was used. A colony of bacteria was picked and grown in LB medium overnight at 37 °C. The next day, the culture was then regrown in LB medium to log phase (OD600 = 0.6 to 0.8), which lasted approximately 4 hours, and diluted to an OD600 of 0.022 in the desired medium (full MH or 12.5% MH).
(§3) The compounds were prepared as stock solutions of 2 mg/mL in sterilized MilliQ deionized water and then diluted in the desired media (full MH or 12.5% MH) to reach the first concentration tested (32 μg/mL). The compounds were added to the first well of a 96-well sterile, round bottom microtiter plates in polystyrene (TPP®, untreated) and diluted serially by ½ in the desired media (full MH or 12.5% MH), to a final volume of 150 µL/well. To each well was finally added 4 µL of the diluted bacterial suspension (see above), corresponding to approximately 5×10^5 CFU. For each test, two columns of the plate were kept for sterility control (medium only), growth control (medium with bacterial inoculum, no compound). The positive control, Polymyxin B (starting with a concentration of 16 µg/mL) in MH medium with bacterial inoculums, was introduced in the two first lines of the plate. The plates were incubated at 37 °C for ca. 18 hours under static conditions. 15 µL of 3-(4,5-dimethylthiazol-2-yl)-2,5-diphenyltetrazolium bromide (MTT)[7] (1 mg/mL in sterilized MilliQ deionized water) were added to each well and the plates were incubated for 20-30 minutes at room temperature. The […]
(§4) minimal inhibitory concentration (MIC) was defined as the lowest concentration of the compound that inhibits the visible growth of the tested bacteria (yellow) with the unaided eye.
(§5) Minimal Hemolytic Concentration (MHC) […]
(§6) 11. Minimal inhibitory in presence of salt
The same procedure as for the antibacterial activity measurements by minimal inhibitory concentration assay (MIC) was applied. The media, 12.5% Mueller-Hinton broth was this time supplemented with different salt concentrations (0, 100, 200 300 mM NaCl). The MIC activities were then determined against Pseudomonas aeruginosa PAO1 and Escherichia coli […]
Table S6. Minimal inhibitory concentration (MIC) on P. aeruginosa PAO1 as function of salt […]
(§7) All data, in μg/mL, measured against P. aeruginosa PAO1, with or without addition of salt (NaCl). The values were measured in dilute medium (12.5% MH) and at slightly basic pH (pH = 8.5), after incubation for 16-20 h at 37 °C. Values represent two different duplicate MIC determinations.

The next series concerns E. coli W3110. Format: cell-based, Escherichia coli. The settings on record: W3110, pH 8.5. Here is the method: as §1, §2, §3, §4, §5, §6
The same procedure as for the antibacterial activity measurements by minimal inhibitory concentration assay (MIC) was applied. The media, 12.5% Mueller-Hinton broth was this time supplemented with different salt concentrations (0, 100, 200 300 mM NaCl). […]
as §7

For series [1], the system named is E. coli W3110, P. aeruginosa PAO1, S. aureus COL (MRSA), A. baumannii ATCC19606, K. pneumoniae NCTC418. Description: MIC of macrocycles versus their linearized analogs (Table S4 panel). Conditions: Table S4, 12.5% MH pH 7.4. The series is classed as cell-based. How it is done: as §1
as §2, with “MH). […]” for “MH).”
To determine the minimal hemolytic concentration (MHC), stock solutions of 8 mg/mL of the peptide in sterilized MilliQ water deionized were prepared and 50 μL were diluted serially by ½ in 50 μL PBS (pH 7.4) in 96-well plate (Costar or Nunc, polystyrene, untreated). […] Minimal hemolytic concentration (MHC) end points were determined by visual determination of the wells after the incubation period. […]

Series [2] is described as follows: Dansyl-polymyxin (DsPMB) displacement assay. The settings on record: 37 °C, 2.5 µM DsPMB, LPS 3 μg/mL, emission 485 nm; mean ± SD, n = 3. Format: binding, Pseudomonas aeruginosa. How it is done: 14. Dansyl-Polymyxin (DsPMB) Displacement Assay
Saturation determination. Dansyl-polymyxin (DsPMB) in water (1.5 mg/mL) and lyophilized lipopolysaccharides from P. aeruginosa were obtained from Merck. LPS were prepared as a 1 mg/mL stock solution in mQ water and stored at 4 °C. The fluorescence saturation of DsPMB with LPS was first determined, by titration (0.25 μM increments, up to 5 μM) of the DsPMB into a 3 μg/mL of LPS (10 mM Tris, 10 mM NaCl buffer, pH 7.4), at 37 °C. The fluorescence was recorded with a Jasco spectrofluorometer FP-8300, with the excitation at λex = 340 nm (5 nm slit width) and recorded from 420 to 650 nm. The fluorescence was recorded two minutes after each addition. Saturation was graphically determined, at a concentration of D sPMB ≈ 2.5 μM (λem = 485 nm). Each measurement was determined in triplicates.
Displacement assay. The displacement effect of the various peptides was determined by measuring the reduction of fluorescence intensity, at 37 °C. Initially, DsPMB (2.5 μM) was mixed with LPS (3 μg/mL) and let it react for 15 minutes before recording the fluorescence […]
intensity (at λem = 485 nm and λex = 340 nm). Then, the peptide was titrated (1 μM increments, up to 10 μM) into the DsPMB/LPS mixture, and the fluorescence was recorded two minutes after the compound addition. The decrease in fluorescence was interpreted as the displacement of DsPMB from the LPS due to competitive binding by the peptide.[12,13] Specific Fluorescence Enhancement
Figure S8. Fluorescence emission of dansyl-polymyxin (DsPMB) in presence of lipopolysaccharide (LPS) extracted from P. aeruginosa (3 µg/mL) in TRIS/NaCl buffer (10 mM, pH 7.4). The fluorophore was excited at 340 nm (5 nm slit width) and recorded from 420 to 650 nm. The data represent mean value from three measurement. Specific fluorescence represents the emission of DsPMB with the non-specific fluorescence (no LPS) deduced.

A further series concerns human red blood cells. Description: Minimal hemolytic concentration (MHC). Format: cell-based. Conditions: pH 7.4, 25 °C, 4 h. Here is the method: as §4
Minimal Hemolytic Concentration (MHC)
To determine the minimal hemolytic concentration (MHC), stock solutions of 8 mg/mL of the peptide in sterilized MilliQ water deionized were prepared and 50 μL were diluted serially by ½ in 50 μL PBS (pH 7.4) in 96-well plate (Costar or Nunc, polystyrene, untreated). Human red blood cells (hRBC) were obtained by centrifugation of 1.5 mL of whole blood, from the blood bank of Bern, at 3000 rpm for 15 minutes at 4 °C. Plasma was discarded and the pellet was re-suspended in a 15 mL Falcon tube in 5 mL of PBS. The washing was repeated three times, and the remaining pellet was re-suspended in 10 mL of PBS at a final hRBC concentration of 5%. The hRBC suspension (50 μL) was added to each well and the plate was incubated at room temperature for 4 hours. Minimal hemolytic concentration (MHC) end points were determined by visual determination of the wells after the incubation period.
Controls on each plate included a blank medium control (50 μL PBS + 50 μL of hRBC suspension) and a hemolytic activity control t-octylphenoxypolyethoxyethanol (Triton-X100) (1 % in MilliQ-deionized water) 50 μL + 50 μL hRBC suspension).
Table S3. […]

A further series can be described thus: Serum stability assay. The settings on record: human serum 12.5% in 0.1 M Tris buffer pH 7.4, 37 °C, 200 µM peptide, time points 0/1/6/10/24 h, triplicates, LC(-MS), 4-hydroxybenzoic acid internal standard. The series is classed as in vitro ADME. How it is done:
Human serum was diluted in 0.1 M filtered TRIS buffer pH 7.4 (25%, 1:3, v/v). Selected hybrids were diluted in 0.1 M filtered TRIS buffer pH 7.4 to a concentration of 400 μM and 0.1 mg/mL of 4-hydroxybenzoic acid was added as internal standard. Aliquots of peptide solution (50 μL) were added to aliquots of serum (50 uL) in sterile Eppendorf tubes, to reach a peptide concentration of 200 μM during the assay. Samples were incubated at 37 °C under gentle stirring (350 rpm). Different samples (triplicates) were quenched at different time points (0 / 1 / 6 / 10 / 24 h) by precipitating serum proteins through the addition of 100 μL of a solution ZnSO4·7 H2O (0.05 mM) in water/ACN (1:1) and cooling in ice bath for 10 minutes.
Protein precipitates were pelleted under centrifugation (5 min at 14’000 rpm) and the supernatants were analysed by LC-MS. Experiment controls included a precipitation control for each peptide to test their resistance to the protein precipitation conditions and serum blanks to check reproducibility over different serum batches. Peaks corresponding to the internal standard and the undegraded peptides were integrated, with the ratio peptide/standard at t = 0 h as 100 % undegraded peptide.
Cell Culture Conditions. […]

Converted amounts (≈) assume the structure as drawn. Bridge positions count the residues as written; N and C are the ends. Square brackets hold non-standard residues; d marks the D form. Peptide text beside a SMILES is read from it. * marks the point of attachment. Propanoyl(3-cHex) = O=C(CCC1CCCCC1)*; Gly(NCH2CH2Ph) = O=C(O)CNCCc1ccccc1; Heptanoyl(6-Me) = CC(C)CCCCC(=O)*; N(iPr)Gly = CC(C)NCC(=O)O; Nphe = O=C(O)CNCc1ccccc1; Dab = NCC[C@H](N)C(=O)O; Nlys = NCCCCNCC(=O)O

As to `CC(C)N(CC(=O)N[C@@H](CC(N)=O)C(=O)N[C@H]1CCNC(=O)[C@H](CCCCN)NC(=O)[C@H](CC(N)=O)NC(=O)CN(CCCCN)C(=O)[C@H](CCCCN)NC(=O)[C@H](CO)NC1=O)C(=O)CN(Cc1ccccc1)C(=O)CCC1CCCCC1` [EB36] ({Propanoyl(3-cHex)}-[Nphe][N(iPr)Gly]N[Dab]SK[Nlys]NK; lactam 4-C), in the series with P. aeruginosa PAO1, the “MIC on P. aeruginosa, 0 mM NaCl” value amounted to 32 µg/mL (≈ 27 µM); the “MIC on P. aeruginosa, 100 mM NaCl” value was greater than 64 µg/mL; the “MIC on P. aeruginosa, 200 mM NaCl” value is greater than 64 µg/mL; the “MIC on P. aeruginosa, 300 mM NaCl” value is greater than 64 µg/mL. Also, in the series with E. coli W3110, the “MIC on E. coli, 0 mM NaCl” value lay in the range of 16 to 32 µg/mL; the “MIC on E. coli, 100 mM NaCl” value is greater than 64 µg/mL; the “MIC on E. coli, 200 mM NaCl” value is greater than 64 µg/mL; the “MIC on E. coli, 300 mM NaCl” value is greater than 64 µg/mL.
Consider `CC(C)N1CC(=O)N[C@@H](CCCCN)C(=O)N[C@@H](CO)C(=O)N[C@@H](CCCCN)C(=O)NCC[C@H](NC(=O)[C@H](CCCCN)NC(=O)[C@@H]2CCCN2C(=O)CN(CCc2ccccc2)C(=O)CCC2CCCCC2)C(=O)N[C@@H](CC(N)=O)C(=O)NCC1=O` [EB37] ({Propanoyl(3-cHex)}-[Gly(NCH2CH2Ph)]PK[Dab]NG[N(iPr)Gly]KSK; lactam 4-C), for which, in the series on P. aeruginosa PAO1, the “MIC on P. aeruginosa, 0 mM NaCl” value came to 32 µg/mL (≈ 25.8 µM); the “MIC on P. aeruginosa, 100 mM NaCl” value is greater than 64 µg/mL; the “MIC on P. aeruginosa, 200 mM NaCl” value is greater than 64 µg/mL; the “MIC on P. aeruginosa, 300 mM NaCl” value is greater than 64 µg/mL. In the series on E. coli W3110, the “MIC on E. coli, 0 mM NaCl” value was 32 µg/mL (≈ 25.8 µM); the “MIC on E. coli, 100 mM NaCl” value was greater than 64 µg/mL; the “MIC on E. coli, 200 mM NaCl” value is greater than 64 µg/mL; the “MIC on E. coli, 300 mM NaCl” value is greater than 64 µg/mL.
As to `CC(C)CCCCC(=O)N[C@@H](CCN)C(=O)N[C@H](C(=O)N[C@@H](CCN)C(=O)N[C@H]1CCNC(=O)[C@H]([C@@H](C)O)NC(=O)[C@H](CCN)NC(=O)[C@H](CCN)NC(=O)[C@H](CC(C)C)NC(=O)[C@@H](Cc2ccccc2)NC(=O)[C@H](CCN)NC1=O)[C@@H](C)O` [PMB2, polymyxin B2] ({Heptanoyl(6-Me)}-[Dab]T[Dab][Dab][Dab][dF]L[Dab][Dab]T; lactam 4-C), in the series with P. aeruginosa PAO1, the “MIC on P. aeruginosa, 0 mM NaCl” value came to 0.5 µg/mL (≈ 0.42 µM); the “MIC on P. aeruginosa, 100 mM NaCl” value came out at 0.25 µg/mL (≈ 0.21 µM); the “MIC on P. aeruginosa, 200 mM NaCl” value came out at 0.25 µg/mL (≈ 0.21 µM); the “MIC on P. aeruginosa, 300 mM NaCl” value stood at 0.25 µg/mL (≈ 0.21 µM). Further, in the series with E. coli W3110, the “MIC on E. coli, 0 mM NaCl” value is 0.25 µg/mL (≈ 0.21 µM); the “MIC on E. coli, 100 mM NaCl” value was found to be 0.25 µg/mL (≈ 0.21 µM); the “MIC on E. coli, 200 mM NaCl” value came out at 0.25 µg/mL (≈ 0.21 µM); the “MIC on E. coli, 300 mM NaCl” value was 0.25 µg/mL (≈ 0.21 µM).
For “FA4-Val-C2-A1-Ala-Lys-Gly-Lys-C3-Lys [EB13lin, linearized analog of EB13]”, the “Loss of activity of linearized analog relative to macrocyclic parent” value in series [1] was “between two‐fold and eight‐fold less active”.
The same measure, in the same setting: in the case of “FA5-A3-Lys-Asn-Ala-Lys-H2-Lys-C3-Lys [EB12lin, linearized analog of EB12]” it was “between two‐fold and eight‐fold less active”.
Turning to “FA7-H4-C3-A6-Dab(*)-C2-Lys-Ser-Lys-C1-Lys-* (lariat or depsi) [EB33, hemolytic peptide-peptoid macrocycle, PDGA-generated PMB2 analog]”, the “Binding to lipopolysaccharide (dansyl-PMB fluorescence displacement)” value in series [2] is listed as “an even stronger signal”. For the same compound, the “Hemolysis of red blood cells relative to PMB2” value in the series on human red blood cells is given as “slightly more hemolytic than PMB2”.
Take “FA10-A3-Lys-C2-Dab(*)-Asn-C2-Lys-Val-Lys-* (lariat or depsi) [EB18, peptide-peptoid macrocycle, PDGA-generated PMB2 analog]”: the “Stability against proteolysis in human serum (undegraded peptide)” value in the series “Serum stability assay” is “did not show any significant degradation in human serum”.
